Experimental data from article PMC12208494, “The zinc metalloprotein MigC impacts cell wall biogenesis through interactions with an essential Mur ligase in Acinetobacter baumannii” (PLOS Pathogens, 2025).

Target: T1, MurC (Acinetobacter baumannii, UniProt A3M9Y0)
T1 construct: full length, N-terminal 6xHis tag removed by TEV protease, E. coli BL21(DE3)
Experiment: HPLC of UMA formation
Type: biochemical
Conditions: 200 µM UDP-MurNAc, 1 mM L-alanine, 1 mM ATP, 2 mM MgCl2, pH 7.4, 37 °C

T1 sequence (A3M9Y0 whole entry): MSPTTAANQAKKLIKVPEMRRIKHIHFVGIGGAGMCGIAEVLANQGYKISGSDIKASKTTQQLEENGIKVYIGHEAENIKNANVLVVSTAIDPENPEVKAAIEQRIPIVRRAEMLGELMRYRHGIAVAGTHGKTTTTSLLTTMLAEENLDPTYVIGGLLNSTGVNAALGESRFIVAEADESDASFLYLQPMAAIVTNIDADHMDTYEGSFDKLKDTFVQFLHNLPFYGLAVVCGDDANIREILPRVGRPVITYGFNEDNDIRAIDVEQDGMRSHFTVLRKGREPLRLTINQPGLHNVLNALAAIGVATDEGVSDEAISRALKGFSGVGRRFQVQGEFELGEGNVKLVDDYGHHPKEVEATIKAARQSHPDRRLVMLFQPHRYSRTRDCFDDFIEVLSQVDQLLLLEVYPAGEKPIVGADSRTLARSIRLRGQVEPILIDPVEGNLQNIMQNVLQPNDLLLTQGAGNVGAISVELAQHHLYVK

CC(=O)N[C@H]1[C@@H](OP(=O)(O)OP(=O)(O)OC[C@H]2O[C@@H](n3ccc(=O)[nH]c3=O)[C@H](O)[C@@H]2O)O[C@H](CO)[C@@H](O)[C@@H]1O[C@H](C)C(=O)O [UDP-MurNAc]
HPLC of UMA formation: MurC and MurD activity were quantified by measuring MurC product, UMA
